Earlier results on two compounds are cited in US20240374627A1, “A PHARMACEUTICAL COMPOSITION COMPRISING COMBINATION OF SITAGLIPTIN AND EMPAGLIFLOZIN” (UNISON PHARMACEUTICALS PVT. LTD., priority 2021, published 2024).

Read-outs that look alike come from different tables or passages of the source.

The conditions of data set [1]: healthy volunteers; Brand et al., Adv Ther 2012.

Take `N[C@@H](CC(=O)N1CCn2c(nnc2C(F)(F)F)C1)Cc1cc(F)c(F)cc1F` [Sitagliptin, 7-[(3R)-3-amino-1-oxo-4-(2,4,5-trifluorophenyl)butyl]-5,6,7,8-tetrahydro-3-(trifluoromethyl)-1,2,4-triazolo[4,3-a]pyrazine phosphate (1:1) monohydrate]: the solubility result was “soluble” (N,N-dimethyl formamide); “soluble” (acetone); “soluble” (acetonitrile); “soluble” (ethanol); “insoluble” (isopropanol); “insoluble” (isopropyl acetate). Also, the solubility entry is recorded as “slightly soluble” (methanol) and “soluble” (water). Moreover, the “effect of coadministration on the pharmacokinetics of either drug” value in data set [1] was “without specifying any clinically relevant effect”.
Regarding `OC[C@H]1O[C@@H](c2ccc(Cl)c(Cc3ccc(O[C@H]4CCOC4)cc3)c2)[C@H](O)[C@@H](O)[C@@H]1O` [Empagliflozin, (1S)-1,5-anhydro-1-(4-chloro-3-{4-[(3S)-tetrahydrofuran-3-yloxy]benzyl}phenyl)-D-glucitol], the solubility entry was “slightly soluble” (acetonitrile); “slightly soluble” (aqueous media between pH 1-7.4, European assessment report of Jardiance); “slightly soluble” (ethanol); “sparingly soluble” (methanol); “practically insoluble” (toluene); “very slightly soluble” (water (pH 1-7.4)). The “effect of coadministration on the pharmacokinetics of either drug” value in data set [1] is given as “without specifying any clinically relevant effect”.
